Calls of active or inactive are those of the source.
Experiments:
[1] = test system: MCF-7; test: Antagonist activity at estrogen receptor in Homo sapiens (human) MCF-7 cells assessed as potentiation of fluvestrant-induced reduction in [3H]thymidine incorporation at 3.13 to 6.25 uM aftestrogen receptor 72 hr by liquid scintillation counting; type: cell-based
[2] = test system: MDA-MB-231; test: Cytotoxicity against Homo sapiens (human) ER-deficient MDA-MB-231 cells after 48 hr by SRB assay; type: functional
[3] = test system: MCF7; test: Cytotoxicity against Homo sapiens (human) MCF-7 cells expressing ER after 48 hr by SRB assay; type: functional
[4] = test system: MDA-MB-231; test: Cytotoxicity against Homo sapiens (human) ER-deficient MDA-MB-231 cells grown in RPMI medium at 3.13 to 100 uM after 48 hr by SRB assay; type: functional, cell-based
[5] = test system: MDA-MB-231; test: Antiproliferative activity against Homo sapiens (human) ER-deficient MDA-MB-231 cells grown in steroid free RPMI medium assessed as inhibition of [3H]thymidine incorporation at 3.13 to 100 uM after 72 hr by liquid scintillation counting; type: functional, cell-based
[6] = test system: MCF-7; test: Agonist activity at estrogen receptor in Homo sapiens (human) MCF-7 cells grown in stestrogen receptoroid free RPMI medium assessed as incorporation of [3H]thymidine at 0.1 to 0.2 uM aftestrogen receptor 72 hr by liquid scintillation counting; type: cell-based
[7] = test system: MDA-MB-231; test: Cytotoxicity against Homo sapiens (human) ER-deficient MDA-MB-231 cells grown in steroid free RPMI medium at 3.13 to 100 uM after 72 hr by SRB assay; type: functional, cell-based
[8] = test system: MCF-7; test: Antagonist activity at estrogen receptor in Homo sapiens (human) MCF-7 cells assessed as inhibition of 17betaestradiol-induced [3H]thymidine incorporation at 0.1 to 0.78 uM aftestrogen receptor 72 hr by liquid scintillation counting; type: cell-based
[9] = test system: MCF-7; test: Antagonist activity at estrogen receptor in Homo sapiens (human) MCF-7 cells assessed as potentiation of 4-hydroxytamoxifen-induced reduction in [3H]thymidine incorporation aftestrogen receptor 72 hr by liquid scintillation counting; type: cell-based
[10] = test system: MCF-7; test: Inhibition of estrogen receptor in Homo sapiens (human) MCF-7 cells grown in RPMI medium assessed as cell death at 3.13 to 100 uM aftestrogen receptor 48 hr by SRB assay; type: cell-based
[11] = test system: MCF-7; test: Antagonist activity at estrogen receptor in Homo sapiens (human) MCF-7 cells grown in stestrogen receptoroid free RPMI medium assessed as inhibition of [3H]thymidine incorporation at 3.13 to 100 uM aftestrogen receptor 72 hr by liquid scintillation counting; type: cell-based
[12] = test system: MCF7; test: Inhibition of ER in Homo sapiens (human) MCF-7 cells grown in steroid free RPMI medium assessed as cell death at 3.13 to 100 uM after 72 hr by SRB assay; type: functional, cell-based

CC(C)=CCOc1cc2oc(-c3ccccc3)cc(=O)c2c(O)c1O
29.7 µM: GI50 ([2]; MDA-MB-231, 48 h)
active: Activity [1] | Activity [2] Dose-dependent effect | Activity [3] Dose-dependent effect | Activity [4] | Activity [5] | Activity [6] | Activity [7] | inhibition [8] | Activity [9] Dose-dependent effect | inhibition [11] | inhibition [12]
inactive: inhibition [10]
11.2 µM: GI50 ([3]; MCF7, 48 h)

Reference: ChEMBL document CHEMBL3045380, “Effects of a prenyl-baicalein derivative on ER (+) MCF-7 and ER () MDA-MB-231 breast tumor cell lines” (2012)
